Results reported in patent US20200054058A1, “Sweetness and Taste Improvement of Steviol Glycoside and Mogroside Sweeteners with Dihydrochalcones” (The Coca-Cola Company, priority 2017, published 2020).
Where two headings read alike, the source gives them in different places.

Columns and labels:
panelists [1] = type: in vivo, human; settings: 250 ppm Rebaudioside M in acidic water; for sweetness in sucrose equivalents: slightly less sweet
panelist [2] = experiment: Taste evaluation of phloretin with rebaudioside M in acidic water against sucrose solutions (Example 1); type: in vivo, human; settings: one panelist
Excerpt: First, the panelist assessed the sweetness of 40 ppm of phloretin in acidic water against a 1.5% sucrose solution in acidic water. 40 ppm of phloretin was reported to have a sweetness less than the sweetness of the 1.5% sucrose solution.
Next, the panelist compared the sweetness profile of (i) the sample containing 150 ppm rebaudioside M in acidic water and (ii) the sample containing 40 ppm phloretin and 150 ppm rebaudioside M in acidic water to the 5%, 7%, 8%, 9%, and 10% sucrose solutions.

panelists [3] = experiment: Taste evaluation of NHDC with rebaudioside M in acidic water against sucrose solutions (Example 2); type: in vivo, human; settings: both panelists
Excerpt: First, the panelists assessed the sweetness of 5 ppm of NHDC in acidic water against 1.5% sucrose solution in acidic water.
Next, panelists compared the sweetness profile of (i) a sample containing 150 ppm rebaudioside M and (ii) a sample containing 5 ppm NHDC and 150 rebaudioside M to the 6%, 8%, and 10% sucrose solutions.

panelists [4] = experiment: Taste evaluation of hesperetin dihydrochalcone with rebaudioside M in acidic water against sucrose solutions (Example 3); type: in vivo, human; settings: 150 ppm rebaudioside M in acidic water; both panelists; slightly less sweet
Excerpt: Panelists compared the sweetness profile of (i) a sample containing 150 ppm rebaudioside M and (ii) a sample containing 40 ppm hesperetin dihydrochalcone and 150 ppm rebaudioside M to the 4%, 6%, 8%, and 10% sucrose solutions.

panelists [5] = experiment: Bench tasting of acidified mock beverages, CC-00800 + Reb-M (Example 5); type: in vivo, human; settings: 472 ppm Reb-M, control mock beverage (Bev. #7); five panelists
Protocol: Rebaudioside M was acquired from Pure Circle (86% Reb-M, 9% Reb-D, 0.8% Reb-A, plus other steviol glycosides in minor amount).
A 6% stock solution of Hesperetin Dihydrochalcone (CC-00800) was made in propylene glycol (PG) food grade and used in subsequent experiments.
Acidified mock beverages (300 grams) were made using the following ingredients (in grams) in order:
All ingredients were dissolved in carbon-filtered water and the resulting beverage was filled in 300 ml glass bottles and immediately refrigerated (4° C.). Beverages were bench tasted next morning.
Five experienced panelists bench tasted the beverages blindly. Each panelist was given warm bottled water and unsalted crackers to eat and rinse the palate between samples. A maximum of 3 samples was tasted at each session to avoid fatigue.

panelists [6] = experiment: Sensory tasting of mock beverages with Reb-J, Reb-N, Reb-O, Reb-M with and without CC-00800 against sucrose references (Example 6); type: in vivo, human; settings: for enhancement of overall sweetness by hesperitin dihydrochalcone: 10 ppm hesperitin dihydrochalcone added to the steviol glycoside beverage, all panelists; for sweetness and bitterness rank among Reb-J, Reb-N, Reb-O, Reb-M: mock beverages without hesperitin dihydrochalcone
Protocol: Steviol glycosides, namely Reb-J, Reb-N, Reb-M, Reb-O with 95% purity were purchased from commercial sources.
A 6% stock solution of CC-00800 (hesperitin dihydrochalcone, “HDC”) was made in propylene glycol (PG) food grade and used in subsequent experiments.
Acidified mock beverages (100 grams) were made using the following ingredients (in grams) in order:
All ingredients were dissolved in carbon-filtered water and the resulting beverage was filled in 300 ml glass bottles and immediately refrigerated (4° C.). Beverages were bench tasted when cold.
Four experienced panelists bench tasted the beverages blindly. Each panelist was given warm bottled water and unsalted crackers to eat and rinse the palate between samples. A maximum of 3 samples was tasted at each session to avoid fatigue.
The first session consisted of tasting beverages without hesperitin dihydrochalcone.
The second session consisted of tasting the beverages with hesperitin dihydrochalcone added (10 ppm). All panelists agreed that hesperitin dihydrochalcone enhanced the overall sweetness for about 1 Brix for Reb-J, Reb-O, and Reb-N, while Reb-M was enhanced with about 2.5 Brix.

panelist [7] = settings: Isomer of Siamenoside I in acidic water (100 ppm, Table 4); one panelist
Excerpt: The panelist was asked to evaluate the sweetness of the samples against the 3%, 5%, and 8% sucrose solutions and describe the taste profiles.

panelists [8] = settings: 250 ppm 1,6-α-isomer of Siamenoside I in acidic water; one panelist; slightly less
panelists [9] = settings: 250 ppm Siamenoside I in acidic water; one panelist
panelists [10] = experiment: Taste evaluation of hesperetin dihydrochalcone with siamenoside I in acidic water against sucrose solutions (Example 4); type: in vivo, human; settings: 150 ppm siamenoside I in acidic water; both panelists; slightly less sweet
Excerpt: Panelists compared the sweetness profile of (i) a sample containing 150 ppm siamenoside I and (ii) a sample containing 40 ppm hesperetin dihydrochalcone and 150 ppm siamenoside I to the 4%, 6%, 8%, and 10% sucrose solutions.

[11] = 150 ppm rebaudioside M in acidic water
[12] = 10 ppm hesperitin dihydrochalcone added

## C=C1C[C@@]23CC[C@H]4[C@@](C)(CCC[C@@]4(C)C(=O)O[C@@H]4O[C@H](CO)[C@@H](O)[C@H](O[C@@H]5O[C@H](CO)[C@@H](O)[C@H](O)[C@H]5O)[C@H]4O[C@@H]4O[C@H](CO)[C@@H](O)[C@H](O)[C@H]4O)[C@@H]2CC[C@]1(O[C@@H]1O[C@H](CO)[C@@H](O)[C@H](O[C@@H]2O[C@H](CO)[C@@H](O)[C@H](O)[C@H]2O)[C@H]1O[C@@H]1O[C@H](CO)[C@@H](O)[C@H](O)[C@H]1O)C3 [rebaudioside M]
Panelists [1]; both panelists
  sweetness and mouthfeel compared with sample also containing Hesperetin dihydrochalcone-4′-beta-D-glucoside: less sweet and less mouthfeel
Panelists [1]; one panelist
  sweetness in sucrose equivalents: < 7 % sucrose
Panelists [1]; the other panelist
  sweetness in sucrose equivalents: < 8 % sucrose
Panelist [2]; [11]
  sweetness against sucrose solutions: 6 % sucrose
Panelists [3]; [11]
  sweetness against sucrose solutions: 6 % sucrose
Panelists [4]
  sweetness against sucrose solutions: < 6 % sucrose
Panelists [5]
  aftertaste of control: sweet lingering, licorice and bitter aftertaste observed in the control
Panelists [6]
  enhancement of overall sweetness by hesperitin dihydrochalcone: about 2.5 Brix
  sweetness and bitterness rank among Reb-J, Reb-N, Reb-O, Reb-M: sweetest

## COc1ccc(CCC(=O)c2c(O)cc(O[C@@H]3O[C@H](CO)[C@@H](O)[C@H](O)[C@H]3O[C@@H]3O[C@@H](C)[C@H](O)[C@@H](O)[C@H]3O)cc2O)cc1O [NHDC, 1-[4-[[(2S,3R,4S,5S,6R)-4,5-Dihydroxy-6-(hydroxymethyl)-3-[[(2S,3R,4R,5R,6S)-3,4,5-trihydroxy-6-methyl-2-tetrahydropyranyl]oxy]-2-tetrahydropyranyl]oxy]-2,6-dihydroxyphenyl]-3-(3-hydroxy-4-methoxyphenyl)propan-1-one]
Panelists [3]; 5 ppm NHDC in acidic water
  sweetness against sucrose solution: < 1.5 % sucrose

## C[C@H](CC[C@@H](O[C@@H]1O[C@H](CO[C@H]2O[C@H](CO)[C@@H](O)[C@H](O)[C@H]2O)[C@@H](O)[C@H](O)[C@H]1O[C@@H]1O[C@H](CO)[C@@H](O)[C@H](O)[C@H]1O)C(C)(C)O)[C@H]1CC[C@@]2(C)[C@@H]3CC=C4[C@@H](CC[C@H](O[C@@H]5O[C@H](CO)[C@@H](O)[C@H](O)[C@H]5O)C4(C)C)[C@]3(C)[C@H](O)C[C@]12C [1,6-α-isomer of Siamenoside I, mogro-3-O-[β-D-glucopyranoside]-24-O-{[β-D-glucopyranosyl-(1→2)]-[α-D-glucopyranosyl-(1→6)]-β-O-D-glucopyranoside}]
Panelist [7]
  sweetness against sucrose solutions: ~4 % sucrose
Panelists [8]
  sweetness in sucrose equivalents: less than 7 % sucrose

## C=C1C[C@@]23CC[C@H]4[C@@](C)(CCC[C@@]4(C)C(=O)O[C@@H]4O[C@H](CO)[C@@H](O)[C@H](O[C@@H]5O[C@H](CO)[C@@H](O)[C@H](O)[C@H]5O)[C@H]4O[C@@H]4O[C@@H](C)[C@H](O)[C@@H](O)[C@H]4O)[C@@H]2CC[C@]1(O[C@@H]1O[C@H](CO)[C@@H](O)[C@H](O[C@@H]2O[C@H](CO)[C@@H](O)[C@H](O)[C@H]2O)[C@H]1O[C@@H]1O[C@H](CO)[C@@H](O)[C@H](O)[C@H]1O)C3 [Reb-N, rebaudioside N]
Panelists [6]
  enhancement of overall sweetness by hesperitin dihydrochalcone: about 1 Brix

## C[C@H](CC[C@@H](O[C@@H]1O[C@H](CO[C@@H]2O[C@H](CO)[C@@H](O)[C@H](O)[C@H]2O)[C@@H](O)[C@H](O)[C@H]1O[C@@H]1O[C@H](CO)[C@@H](O)[C@H](O)[C@H]1O)C(C)(C)O)[C@H]1CC[C@@]2(C)[C@@H]3CC=C4[C@@H](CC[C@H](O[C@@H]5O[C@H](CO)[C@@H](O)[C@H](O)[C@H]5O)C4(C)C)[C@]3(C)[C@H](O)C[C@]12C [siamenoside I]
Panelists [9]
  sweetness in sucrose equivalents: ~6 % sucrose
Panelists [10]
  sweetness against sucrose solutions: < 6 % sucrose

## COc1ccc(CCC(=O)c2c(O)cc(O)cc2O)cc1O [Hesperitin dihydrochalcone, 3-(3-Hydroxy-4-methoxyphenyl)-1-(2,4,6-trihydroxyphenyl)-1-propanone]
Panelists [6]; [12]
  effect on bitterness and other off-notes of steviol glycoside beverages: reduced significantly
  effect on mouth feel of steviol glycoside beverages: improved

## C=C1C[C@@]23CC[C@H]4[C@@](C)(CCC[C@@]4(C)C(=O)O[C@@H]4O[C@H](CO)[C@@H](O)[C@H](O)[C@H]4O[C@@H]4O[C@@H](C)[C@H](O)[C@@H](O)[C@H]4O)[C@@H]2CC[C@]1(O[C@@H]1O[C@H](CO)[C@@H](O)[C@H](O[C@@H]2O[C@H](CO)[C@@H](O)[C@H](O)[C@H]2O)[C@H]1O[C@@H]1O[C@H](CO)[C@@H](O)[C@H](O)[C@H]1O)C3 [Reb-J, rebaudioside J]
Panelists [6]
  enhancement of overall sweetness by hesperitin dihydrochalcone: about 1 Brix
  sweetness and bitterness rank among Reb-J, Reb-N, Reb-O, Reb-M: least sweet and most bitter

## O=C(CCc1ccc(O)cc1)c1c(O)cc(O)cc1O [phloretin, 3-(4-hydroxyphenyl)-1-(2,4,6-trihydroxyphenyl)propan-1-one]
Panelist [2]; 40 ppm phloretin in acidic water
  sweetness against sucrose solution: < 1.5 % sucrose

## C=C1C[C@@]23CC[C@H]4[C@@](C)(CCC[C@@]4(C)C(=O)O[C@@H]4O[C@H](CO)[C@@H](O)[C@H](O[C@@H]5O[C@H](CO)[C@@H](O)[C@H](O)[C@H]5O)[C@H]4O[C@@H]4O[C@@H](C)[C@H](O)[C@@H](O[C@@H]5O[C@H](CO)[C@@H](O)[C@H](O)[C@H]5O)[C@H]4O)[C@@H]2CC[C@]1(O[C@@H]1O[C@H](CO)[C@@H](O)[C@H](O[C@@H]2O[C@H](CO)[C@@H](O)[C@H](O)[C@H]2O)[C@H]1O[C@@H]1O[C@H](CO)[C@@H](O)[C@H](O)[C@H]1O)C3 [Reb-O, rebaudioside O]
Panelists [6]
  enhancement of overall sweetness by hesperitin dihydrochalcone: about 1 Brix
